# Experimental data taken from US20240181000A1, “LGG-DERIVED PEPTIDES AND METHODS OF USE THEREOF” (Ohio State Innovation Foundation, priority 2021, published 2024).
# Marks after values point to notes of the source that are not given here. No end group written: not given here.
# Test system: cecal microbiota
# Experiment: Cecal microbiome analysis (peptides, APEC infected)
# Format: in vivo, chickens
# Procedure: Cecal microbiome analysis: To investigate the impact of peptides (P1, P2, and P3) treatment (50 mg/kg and 100 mg/kg) on cecal microbiome of chickens, 16S rRNA based metagenomic study was conducted as previously described. DNA was extracted from 0.2 g of cecal contents using PureLink™ Microbiome DNA Purification Kit (Thermofisher Scientific) and treated with RNase A (2 μL of 100 mg/mL solution per sample; Qiagen) to remove the RNA. DNA quantity and quality were measured using NanoDrop 2000c Spectrophotometer (Thermo Fisher Scientific). The extracted DNA samples were subjected to 16S rRNA V4-V5 sequencing at molecular and cellular imaging center (MCIC), Ohio Agricultural Research and Development Center (OARDC) (mcic.osu.edu/genomics/illumina-sequencing). Amplicon libraries were prepared using IFU KAPA HiFi HotStart ReadyMixPCR Kit (Roche) and PCR clean-up was performed using Agencourt AMPure XP beads (BECKMAN COULTER Life Sciences). Nextera XT DNA Library Preparation Kit (Illumina) was used to generate Illumina library and sequencing was performed using Illumina MiSeq platform generating paired end 300-bp reads.
# For the metagenomic analysis, QIIME (Quantitative Insights into Microbial Ecology) 2 bioinformatics platform (qiime2.org/) was used. Quality control of the raw reads was performed using FastQC 0.11.8 (Babraham Bioinformatics). Trimmomatic-0.33 was used to trim the adaptor and other illumina-specific sequences (www.usadellab.org/cms/?page=trimmomatic). The trimmed sequences (fastq.gz) were then imported into the QIIME 2 as a manifest file format (PairedEndManifestPhred33V2). The feature table construction and additional filtering of the sequences was performed using DADA2. The taxonomic analysis was performed using Naive Bayes classifiers trained on the Silva 132 99% OTUs (silva-132-99-nb-classifier.qza) database. The phylogenetic diversity was analyzed using align-to-tree-mafft-fasttree pipeline and alpha ([…]) were analyzed using core-metrics-phylogenetic pipeline (docs.qiime2.org/2019.7/tutorials/moving-pictures/). The statistical difference (P<0.05) in the taxonomic composition between the peptides treated, PC, and NC groups was determined using Mann-Whitney U test. The alpha and beta diversity were analyzed using Kruskal-Wallis and PERMANOVA tests (P<0.05), respectively.
substance,measurement,setting,value
"PDENK [Peptide P2, PDENK]",Beta-diversity (weighted unifrac) vs NC chickens,50 mg/kg,similar
same,Beta-diversity (weighted unifrac) vs NC chickens,100 mg/kg,significantly (P<0.01) different
same,Relative abundance Clostridia,"class, 100 mg/kg",64.92%
same,Relative abundance Lachnospiraceae,"family, 100 mg/kg",56.10%
same,Relative abundance Lactobacillaceae,"family, 100 mg/kg",1.38%
same,Relative abundance Leuconostocaceae,"family, 100 mg/kg, from 0.31%",0%
same,Relative abundance Clostridiaceae 1,"family, 100 mg/kg, from 0.53%",0%
same,Relative abundance (%) Anaerotruncus,"genus, 50-mg/kg dose",0.00%
same,Relative abundance (%) Bacteroides,"genus, 50-mg/kg dose",55.87%
same,Relative abundance (%) Clostridioides,"genus, 50-mg/kg dose",0.00%
same,Relative abundance (%) Clostridium sensu stricto 1,"genus, 50-mg/kg dose",0.00%
same,Relative abundance (%) Enterococcus,"genus, 50-mg/kg dose",1.24%
same,Relative abundance (%) Erysipelatoclostridium,"genus, 50-mg/kg dose",3.84^a %
same,Relative abundance (%) Escherichia-Shigella,"genus, 50-mg/kg dose",4.95%
same,Relative abundance (%) Flavonifractor,"genus, 50-mg/kg dose",0.68%
same,Relative abundance (%) Lachnospiraceae (uncultured),"genus, 50-mg/kg dose",2.30%
same,Relative abundance (%) Oscillibacter,"genus, 50-mg/kg dose",0.00%
same,Relative abundance (%) Pediococcus,"genus, 50-mg/kg dose",0.74%
same,Relative abundance (%) Ruminiclostridium 5,"genus, 50-mg/kg dose",0.23%
same,Relative abundance (%) Ruminiclostridium 9,"genus, 50-mg/kg dose",1.25%
same,Relative abundance (%) Ruminococcus gnavus group,"genus, 50-mg/kg dose",0.00%
same,Relative abundance (%) Ruminococcus torques group,"genus, 50-mg/kg dose",9.83%
same,Relative Abundance (%) Blautia,"genus, 100-mg/kg dose",0.00%
same,Relative Abundance (%) Caproiciproducens,"genus, 100-mg/kg dose",0.00%
same,Relative Abundance (%) Lactobacillus,"genus, 100-mg/kg dose",0.00%
same,Relative Abundance (%) Sellimonas,"genus, 100-mg/kg dose",0.00^b %
same,Relative Abundance (%) [Clostridium] innocuum group,"genus, 100-mg/kg dose",0.00^b %
same,Relative Abundance (%) [Eubacterium] coprostanoligenes group,"genus, 100-mg/kg dose",0.00%
same,Relative abundance (%) Anaerotruncus,"genus, 100-mg/kg dose",0.00%
same,Relative abundance (%) Bacillus,"genus, 100-mg/kg dose",0.37%
same,Relative abundance (%) Butyricicoccus,"genus, 100-mg/kg dose",1.53%
same,Relative abundance (%) Clostridiales vadin BB60 group,"genus, 100-mg/kg dose",0.00%
same,Relative abundance (%) Clostridioides,"genus, 100-mg/kg dose",0.00%
same,Relative abundance (%) Clostridium sensu stricto 1,"genus, 100-mg/kg dose",0.00%
same,Relative abundance (%) Enterococcus,"genus, 100-mg/kg dose",2.01%
same,Relative abundance (%) Erysipelatoclostridium,"genus, 100-mg/kg dose",14.71^b %
same,Relative abundance (%) Escherichia-Shigella,"genus, 100-mg/kg dose",13.77%
same,Relative abundance (%) Flavonifractor,"genus, 100-mg/kg dose",0.68^b %
same,Relative abundance (%) Lachnospiraceae (uncultured),"genus, 100-mg/kg dose",0.73%
same,Relative abundance (%) Lactococcus,"genus, 100-mg/kg dose",0.40%
same,Relative abundance (%) Oscillibacter,"genus, 100-mg/kg dose",0.13%
same,Relative abundance (%) Paenibacillus,"genus, 100-mg/kg dose",0.00%
same,Relative abundance (%) Pediococcus,"genus, 100-mg/kg dose",1.38^b %
same,Relative abundance (%) Ruminiclostridium 5,"genus, 100-mg/kg dose",0.28%
same,Relative abundance (%) Ruminiclostridium 9,"genus, 100-mg/kg dose",0.78%
same,Relative abundance (%) Ruminococcacede UCG-005,"genus, 100-mg/kg dose",2.19%
same,Relative abundance (%) Ruminococcus torques group,"genus, 100-mg/kg dose",10.37%
same,Relative abundance (%) UBA1819,"genus, 100-mg/kg dose",0.68%
same,Relative abundance (%) Weissella,"genus, 100-mg/kg dose",2.43^a %
